Results reported in publication PMC13070491, “Single-nucleus transcriptomics, pharmacokinetics, and pharmacodynamics of CDK4/6 and mTOR inhibition in a Phase 0/1 trial of recurrent high-grade glioma” (Neuro-Oncology, 2025).
Several values for one entry are separate records, joined by “and”; a condition that tells them apart may be missing. Equal values may be shown once.

Experiment: CNS penetration: total and unbound drug concentrations in tumor regions, CSF and plasma (LC-MS/MS, equilibrium dialysis);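 note: drug levels in patient tumor tissue from contrast-enhancing and non-enhancing regions sampled under MRI-guided neuronavigation, with plasma and CSF drawn during surgical resection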
Details: for concentration at 5 days / Kp at 120 h / Kp: human, oral
[1] = Level 6: Ribociclib 600mg QD + Everolimus 70mg once on Day 5, sampling 7-9 Hours, per patient

With CO[C@H]1C[C@@H]2CC[C@@H](C)[C@@](O)(O2)C(=O)C(=O)N2CCCC[C@H]2C(=O)O[C@H]([C@H](C)C[C@@H]2CC[C@@H](OCCO)[C@H](OC)C2)CC(=O)[C@H](C)/C=C(\C)[C@@H](O)[C@@H](OC)C(=O)[C@H](C)C[C@H](C)/C=C/C=C/C=C/1C [Everolimus, everolimus] the Everolimus.Unbound.plasma (Level 5: Ribociclib 600mg QD + Everolimus 60mg once on Day 5, sampling 7-9 Hours, per patient) was 4.09E-04 and 6.26E-04 and 4.66E-04, the Everolimus.CSF [1] was 1.14E-02 and BLQ and 1.29E-03 and the Everolimus.Enhancing.tumor [1] was 7.18E-02 and 9.00E-02 and 3.12E-02. For the same compound, the Everolimus.Non-enhancing.tumor [1] was 7.82E-02 and 8.24E-03 and 6.80E-03, the Everolimus.Plasma.conc [1] was 0.0531 and 0.05464 and 0.09057 and the Everolimus.Unbound.enhancing [1] was “BLQ”. For the same compound, the Everolimus.Unbound.non-enhancing [1] was “BLQ”, the Everolimus.Unbound.plasma [1] was 3.00E-04 and 2.82E-04 and 4.90E-04 and the “Kp total drug tumor-to-plasma partition ratio, Enhancing tumor, MAX” value (everolimus 2.5 mg QD 5 days) was 2.738. The “Kp total drug tumor-to-plasma partition ratio, Enhancing tumor, MIN” value (everolimus 2.5 mg QD 5 days) was “BLQ”, the “Kp total drug tumor-to-plasma partition ratio, Non-enhancing tumor, MAX” value (everolimus 2.5 mg QD 5 days) was 1.02 and the “Kp total drug tumor-to-plasma partition ratio, Non-enhancing tumor, MIN” value (everolimus 2.5 mg QD 5 days) was “BLQ”. For the same compound, the “Kp total drug tumor-to-plasma partition ratio, Enhancing tumor, MAX” value (everolimus 5 mg QD 5 days) was 1.77, the “Kp total drug tumor-to-plasma partition ratio, Enhancing tumor, MIN” value (everolimus 5 mg QD 5 days) was 0.59 and the “Kp total drug tumor-to-plasma partition ratio, Non-enhancing tumor, MAX” value (everolimus 5 mg QD 5 days) was 1.09. For the same compound, the “Kp total drug tumor-to-plasma partition ratio, Non-enhancing tumor, MIN” value (everolimus 5 mg QD 5 days) was 0.37, the “Kp total drug tumor-to-plasma partition ratio, Enhancing tumor, MAX” value (everolimus 10 mg QD 5 days) was 1.97 and the “Kp total drug tumor-to-plasma partition ratio, Enhancing tumor, MIN” value (everolimus 10 mg QD 5 days) was “BLQ”. The “Kp total drug tumor-to-plasma partition ratio, Non-enhancing tumor, MAX” value (everolimus 10 mg QD 5 days) was 1.07, the “Kp total drug tumor-to-plasma partition ratio, Non-enhancing tumor, MIN” value (everolimus 10 mg QD 5 days) was 0.07 and the “Kp total drug tumor-to-plasma partition ratio, Enhancing tumor, MAX” value (everolimus 50 mg single dose) was 1.18. For the same compound, the “Kp total drug tumor-to-plasma partition ratio, Enhancing tumor, MIN” value (everolimus 50 mg single dose) was 0.65, the “Kp total drug tumor-to-plasma partition ratio, Non-enhancing tumor, MAX” value (everolimus 50 mg single dose) was 0.32 and the “Kp total drug tumor-to-plasma partition ratio, Non-enhancing tumor, MIN” value (everolimus 50 mg single dose) was “BLQ”. The “Kp total drug tumor-to-plasma partition ratio, Enhancing tumor, MAX” value (everolimus 60 mg single dose) was 1.24, the “Kp total drug tumor-to-plasma partition ratio, Enhancing tumor, MIN” value (everolimus 60 mg single dose) was 0.145 and the “Kp total drug tumor-to-plasma partition ratio, Non-enhancing tumor, MAX” value (everolimus 60 mg single dose) was 0.51. For the same compound, the “Kp total drug tumor-to-plasma partition ratio, Enhancing tumor, MAX” value (everolimus 70 mg single dose) was 1.64, the “Kp total drug tumor-to-plasma partition ratio, Enhancing tumor, MIN” value (everolimus 70 mg single dose) was 0.34 and the “Kp total drug tumor-to-plasma partition ratio, Non-enhancing tumor, MAX” value (everolimus 70 mg single dose) was 1.47. The “Kp total drug tumor-to-plasma partition ratio, Non-enhancing tumor, MIN” value (everolimus 70 mg single dose) was 0.075, the concentration at 5 days (CSF, Total everolimus, MAX, 10 mg QD 5 days) was 2.5 nM and the concentration at 5 days (CSF, Total everolimus, MAX, 50 mg single dose) was 1.5 nM. The concentration at 5 days (CSF, Total everolimus, MED, 2.5 mg QD 5 days) was 0.33 nM, the concentration at 5 days (CSF, Total everolimus, MED, 50 mg single dose) was 0.935 nM and the concentration at 5 days (CSF, median everolimus CSF concentration, across the different dose levels) was 0.48 nM. For the same compound, the Kp at 120 h (enhancing tumor and plasma, 2.5 mg) was 0.62, the Kp at 120 h (enhancing tumor and plasma, 5 mg) was 1.32 and the Kp at 120 h (enhancing tumor and plasma, 10 mg) was 1.2. For the same compound, the Kp (enhancing tumor and plasma, 50 mg) was 0.89, the Kp (enhancing tumor and plasma, 60 mg) was 0.33 and the Kp (enhancing tumor and plasma, 70 mg) was 1.35. For the same compound, the concentration at 5 days (enhancing tumor, Total everolimus, MAX, 2.5 mg QD 5 days) was 83.4 nM, the concentration at 5 days (enhancing tumor, Total everolimus, MAX, 5 mg QD 5 days) was 39.8 nM and the concentration at 5 days (enhancing tumor, Total everolimus, MAX, 10 mg QD 5 days) was 61.3 nM. The concentration at 5 days (enhancing tumor, Total everolimus, MAX, 50 mg single dose) was 74.1 nM, the concentration at 5 days (enhancing tumor, Total everolimus, MAX, 60 mg single dose) was 87.6 nM and the concentration at 5 days (enhancing tumor, Total everolimus, MAX, 70 mg single dose) was 90 nM. It also gave a concentration at 5 days (enhancing tumor, Total everolimus, MED, 2.5 mg QD 5 days) of 5.9 nM, a concentration at 5 days (enhancing tumor, Total everolimus, MED, 5 mg QD 5 days) of 16.6 nM and a concentration at 5 days (enhancing tumor, Total everolimus, MED, 10 mg QD 5 days) of 44 nM. It also gave a concentration at 5 days (enhancing tumor, Total everolimus, MED, 50 mg single dose) of 54.5 nM, a concentration at 5 days (enhancing tumor, Total everolimus, MED, 60 mg single dose) of 30.4 nM and a concentration at 5 days (enhancing tumor, Total everolimus, MED, 70 mg single dose) of 71.8 nM. For the same compound, the concentration at 5 days (enhancing tumor, Total everolimus, MIN, 5 mg QD 5 days) was 11.1 nM, the concentration at 5 days (enhancing tumor, Total everolimus, MIN, 50 mg single dose) was 51.6 nM and the concentration at 5 days (enhancing tumor, Total everolimus, MIN, 60 mg single dose) was 9.8 nM. The concentration at 5 days (enhancing tumor, Total everolimus, MIN, 70 mg single dose) was 31.2 nM, the Kp at 120 h (non-enhancing tumor / plasma, 5 mg) was 0.89 and the Kp at 120 h (non-enhancing tumor / plasma, 10 mg) was 0.1. It also gave a Kp at 120 h (non-enhancing tumor and plasma, 2.5 mg) of 0.49, a Kp (non-enhancing tumor and plasma, 50 mg) of 0.21 and a Kp (non-enhancing tumor and plasma, 60 mg) of 0.17. It also gave a Kp (non-enhancing tumor and plasma, 70 mg) of 0.15, a concentration at 5 days (non-enhancing tumor, Total everolimus, MAX, 2.5 mg QD 5 days) of 35.3 nM and a concentration at 5 days (non-enhancing tumor, Total everolimus, MAX, 5 mg QD 5 days) of 20.2 nM. It also gave a concentration at 5 days (non-enhancing tumor, Total everolimus, MAX, 10 mg QD 5 days) of 33.3 nM, a concentration at 5 days (non-enhancing tumor, Total everolimus, MAX, 50 mg single dose) of 25.1 nM and a concentration at 5 days (non-enhancing tumor, Total everolimus, MAX, 60 mg single dose) of 36.1 nM. For the same compound, the concentration at 5 days (non-enhancing tumor, Total everolimus, MAX, 70 mg single dose) was 78.2 nM, the concentration at 5 days (non-enhancing tumor, Total everolimus, MED, 2.5 mg QD 5 days) was 5.28 nM and the concentration at 5 days (non-enhancing tumor, Total everolimus, MED, 5 mg QD 5 days) was 10.3 nM. The concentration at 5 days (non-enhancing tumor, Total everolimus, MED, 10 mg QD 5 days) was 5 nM, the concentration at 5 days (non-enhancing tumor, Total everolimus, MED, 50 mg single dose) was 15.7 nM and the concentration at 5 days (non-enhancing tumor, Total everolimus, MED, 60 mg single dose) was 13.8 nM. For the same compound, the concentration at 5 days (non-enhancing tumor, Total everolimus, MED, 70 mg single dose) was 8.2 nM, the concentration at 5 days (non-enhancing tumor, Total everolimus, MIN, 5 mg QD 5 days) was 9.2 nM and the concentration at 5 days (non-enhancing tumor, Total everolimus, MIN, 10 mg QD 5 days) was 4.5 nM. For the same compound, the concentration at 5 days (non-enhancing tumor, Total everolimus, MIN, 60 mg single dose) was 11.3 nM, the concentration at 5 days (non-enhancing tumor, Total everolimus, MIN, 70 mg single dose) was 6.8 nM and the concentration at 5 days (tumor tissue (enhancing and non-enhancing regions), unbound everolimus concentrations in enhancing and non-enhancing tumor regions (below the lower limit of quantitation), all dose levels) was under 0.1 nM.
